# Data reported in ChEMBL document CHEMBL4196125, “Identification of N-Benzyl 3,5-Dinitrobenzamides Derived from PBTZ169 as Antitubercular Agents” (ACS Med Chem Lett, 2018).
# Legend:
# Type in all cases: functional
# [1] = system: Mycobacterium tuberculosis; test: Antitubercular activity against Mycobacterium tuberculosis H37Rv harboring GFP measured after 7 days by fluorescence assay; settings: 168 h
# [2] = system: Mycobacterium tuberculosis; test: Antitubercular activity against isoniazid/rifampicin-resistant Mycobacterium tuberculosis 12525 clinical isolate measured after 7 days by microplate alamar blue assay; settings: Mycobacterium tuberculosis, 12525, 168 h
# [3] = system: Mycobacterium tuberculosis; test: Antitubercular activity against isoniazid/rifampicin-resistant Mycobacterium tuberculosis 14231 clinical isolate measured after 7 days by microplate alamar blue assay; settings: Mycobacterium tuberculosis, 14231, 168 h
SMILES,MIC [1] [µg/mL],MIC90 [2] [µg/mL],MIC90 [3] [µg/mL]
COc1ccc(OCCNC(=O)c2cc([N+](=O)[O-])cc([N+](=O)[O-])c2)cc1,0.075,–,–
O=C(NCc1ccc(N2CC3CCCCC3C2)cc1)c1cc([N+](=O)[O-])cc([N+](=O)[O-])c1 (centres undefined),–,0.031,0.125
O=C(NCc1ccc(N2CCSCC2)cc1)c1cc([N+](=O)[O-])cc([N+](=O)[O-])c1,–,0.017,0.085
O=C(NCc1ccc(N2CCC(c3ccc(OC(F)(F)F)cc3)CC2)cc1)c1cc([N+](=O)[O-])cc([N+](=O)[O-])c1,–,0.21,0.474
O=C(NCc1ccc(N2CCN(c3ccc(F)cc3)CC2)cc1)c1cc([N+](=O)[O-])cc([N+](=O)[O-])c1,–,0.047,0.077
O=C(NCc1ccc(N2CCC(C(F)(F)F)CC2)cc1)c1cc([N+](=O)[O-])cc([N+](=O)[O-])c1,–,< 0.016,0.075
O=C(NCc1ccc(N2CCC(C(F)(F)F)CC2)cc1)c1cc([N+](=O)[O-])cc(C(F)(F)F)c1,–,0.138,> 40
NNC(=O)c1ccncc1 [ISONIAZID],–,> 40,> 40
O=c1nc(N2CCN(CC3CCCCC3)CC2)sc2c([N+](=O)[O-])cc(C(F)(F)F)cc12 [MACOZINONE],–,0.116,0.232
CO[C@H]1/C=C/O[C@@]2(C)Oc3c(C)c(O)c4c(O)c(c(/C=N/N5CCN(C)CC5)c(O)c4c3C2=O)NC(=O)/C(C)=C\C=C\[C@H](C)[C@H](O)[C@@H](C)[C@@H](O)[C@@H](C)[C@H](OC(C)=O)[C@@H]1C [RIFAMPIN],–,> 40,> 40
